Results from patent US8153818B2, “Triazolyl phenyl benzenesulfonamides” (ChemoCentryx, Inc., priority 2006, dated 2012).

The compounds below were run against T1, CCR2 (Homo sapiens, UniProt P41597) (assay: CCR2 activity in one of the chemotaxis, binding or calcium mobilization assays). Settings: assay not specified per compound.
T1 construct: CCR2 expressing THP-1 cells were centrifuged and resuspended in assay buffer; host or cells: THP-1
T1 sequence (P41597 1-360 isoform P41597-2): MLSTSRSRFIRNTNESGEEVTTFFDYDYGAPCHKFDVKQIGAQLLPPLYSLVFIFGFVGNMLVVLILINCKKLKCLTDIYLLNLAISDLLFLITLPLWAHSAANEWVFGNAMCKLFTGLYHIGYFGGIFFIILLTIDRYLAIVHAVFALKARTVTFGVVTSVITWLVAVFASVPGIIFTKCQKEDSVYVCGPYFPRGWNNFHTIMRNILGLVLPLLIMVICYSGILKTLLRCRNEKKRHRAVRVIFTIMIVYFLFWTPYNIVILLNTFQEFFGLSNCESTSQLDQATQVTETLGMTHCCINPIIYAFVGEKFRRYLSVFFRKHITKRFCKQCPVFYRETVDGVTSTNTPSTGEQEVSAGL
Format: cell-based
Protocol: Conventional migration assay was used to determine the efficacy of potential receptor antagonists in blocking migration mediated through chemokines (such as CCR2 or CCR9). This assay was routinely performed using the ChemoTX® microchamber system with a 5-μm pore-sized polycarbonate membrane. To begin such an assay, chemokine expressing cells (such as THP-1 cells for CCR2 assay or MOLT-4 cells for CCR9 assay) were harvested by centrifugation of cell suspension at 1000 RPM on a GS-6R Beckman centrifuge. The cell pellet was resuspended in chemotaxis buffer (HBSS with 0.1% BSA) at 10×10^6 cells/mL for CCR2 assay (5×10^6 cells/mL for CCR9 assay). Test compounds at desired concentrations were prepared from 10 mM stock solutions by serial dilutions in chemotaxis buffer. An equal volume of cells and compounds were mixed and incubated at room temperature for 15 minutes. Afterwards, 20 μL of the mixture was transferred onto the porous membrane of a migration microchamber, with 29 μL of chemokine ligand (0.1 nM chemokine MCP-1 protein for CCR2 assay or […] chemokine TECK protein for CCR9 assay) placed at the lower chamber. Following an incubation at 37° C. (90-minute for CCR2; 150-minute for CCR9), during which cells migrated against the chemokine gradient, the assay was terminated by removing the cell drops from atop the filter. To quantify cells migrated across the membrane, 5 μL of 7×CyQUANT® solution was added to each well in the lower chamber, and the fluorescence signal measured on a Spectrafluor Plus fluorescence plate reader (TECAN, Durham, N.C.). The degree of inhibition was determined by comparing migration signals between compound-treated and untreated cells. IC50 calculation was further performed by non-linear squares regression analysis using Graphpad Prism (Graphpad Software, San Diego, Calif.).
Calcium flux assay measures an increase in intracellular calcium following ligand-induced receptor activation. In the screen of chemokine antagonists, it was used as a secondary assay carried out on a FLIPR® machine (Molecular Devices, Mountain View, Calif.). To begin an assay, chemokine expressing cells (such as THP-1 cells for CCR2 assay or MOLT-4 cells for CCR9 assay) were harvested by centrifugation of cell suspension, and resuspended to 1.5×10^6 cells/mL in HBSS (with 1% fetal calf serum). Cells were then labeled with a calcium indicator dye Fluo-4 AM for 45 minutes at 37° C. with gentle shaking. Following incubation, cells were pelletted, washed once with HBSS and resuspended in the same buffer at a density of 1.6×10^6 cells/mL. One hundred microliters of labeled cells were mixed with 10 μL of test compound at the appropriate concentrations on an assay plate. Chemokine protein (MCP-1 at a final concentration of 0.1 nM for CCR2 assay or TECK at a final concentration of 25 nM for CCR9 assay) to activate the receptor. The degree of inhibition was determined by comparing calcium signals between compound-treated and untreated cells. IC50 calculations were further performed by non-linear squares regression analysis using Graphpad Prism (Graphpad Software, San Diego, Calif.).
Ligand binding assay was used to determine the ability of potential CCR2 antagonists to block the interaction between CCR2 and its ligand MCP-1. CCR2 expressing THP-1 cells were centrifuged and resuspended in assay buffer (20 mM HEPES pH 7.1, 140 mM NaCl, 1 mM CaCl2, 5 mM MgCl2, and with 0.2% bovine serum albumin) to a concentration of 2.2×10^5 cells/mL. Binding assays were set up as follows. […]

Row | Compound | IC50 [nM]
1 | O=S(=O)(Nc1cc(Cl)ccc1-c1nncn1-c1cc[nH]n1)c1ccc(Cl)c(C(F)(F)F)c1 [Compound 157] | < 1000
2 | Cc1nnc(-c2ccc(Cl)cc2NS(=O)(=O)c2ccc(Cl)c(C(F)(F)F)c2)n1-c1cc[nH]n1 [Compound 158] | < 1000
3 | O=S(=O)(Nc1cc(Cl)ccc1-c1nncn1-c1ccccc1)c1ccc(Cl)c(C(F)(F)F)c1 [Compound 159, 4-chloro-N-(5-chloro-2-(4-phenyl-4H-1,2,4-triazol-3-yl)phenyl)-3-(trifluoromethyl)benzenesulfonamide] | < 1000
4 | O=S(=O)(Nc1cc(Cl)c(F)cc1-c1nncn1-c1cc[nH]n1)c1ccc(Cl)c(C(F)(F)F)c1 [Compound 160, N-(2-(4-(1H-pyrazol-3-yl)-4H-1,2,4-triazol-3-yl)-5-chloro-4-fluorophenyl)-4-chloro-3-(trifluoromethyl)benzenesulfonamide] | < 1000
5 | NC(=O)c1nnc(-c2cc(F)c(Cl)cc2NS(=O)(=O)c2ccc(Cl)c(C(F)(F)F)c2)n1-c1cc[nH]n1 [Compound 161, 5-(4-chloro-2-(4-chloro-3-(trifluoromethyl)phenylsulfonamido)-5-fluorophenyl)-4-(1H-pyrazol-3-yl)-4H-1,2,4-triazole-3-carboxamide] | < 1000
